Here are results for ten molecules from US20030044872A1, “Means of stabilizing compositions and reagents” (priority 1999, published 2003).

Data set [1] deals with factor XIII. Nature of the data set: Inhibiting for factor XIII in absorbed plasma/calcium lactate buffer mixture (Example 4). Also: key: +: Yes; −: No. Type of data set: biochemical, bovine. As for the experimental part:
(§1) To 100 ml of bovine plasma, barium sulfate in 20 w/v % was added. The mixture was mixed for 30 minutes at room temperature, and stirred slowly. Subsequently, the mixture was centrifuged at 5,000×g to remove the barium sulfate precipitate, and absorbed plasma was prepared by adding in the supernatant, and was mixed with 1 ml of N-ethylmaleimide, as inhibitor for Factor XIII. In other words, the composition prepared, contained at least Factor V and fibrinogen. Beside these, the absorbed plasma, without containing 1 mL of N-ethylmaleimide, was prepared and used, as a control.
(§2) Separately, one volume of the absorbed plasma and one volume of 20 mM Hepes-Tris buffer solution (pH 7.0), in which 10 mM of calcium lactate was added, were mixed together to prepare the solution. To the solution, each of substance, stated in Table 1 as below, was added so that mixture might show such a concentration as mentioned in the Table 1. With these mixtures, the inhibiting rate for factor XIII, and a producing rate of the insoluble matter after storage for 24 hours at 10° C. were measured.

A short description of data set [2]: Insoluble precipitation after storage of absorbed plasma mixture with various substances (Example 4). Also: key: +: Yes; −: No. Type of data set: physicochemical, bovine. The settings on record: storage 24 hours at 10° C. Here is the method: as §1, §2
Data set [3] in a line: Stabilizing effect of 1:1 mixtures of NEM with other inhibitors, procedures of Examples 5 to 8 (Example 9). Type of data set: physicochemical, bovine. From the text: The procedures stated in the Examples 5 to 8 were repeatedly carried out using the mixtures of NEM with monochloroamide, acrylamide, glycinamide, and dithioprydine, as an inhibiting agent, in an amount of 1:1, as other representative examples.

Data set [4] can be described thus: Influence of N-ethylmaleimide concentration on insoluble precipitation, visually detected (Example 5). The class given is physicochemical, bovine. Also noted: key: +: Insoluble Precipitation; ±: Slightly insoluble precipitation; −: No insoluble precipitate. Here is the method: To 100 ml of bovine plasma, barium sulfate in 20 w/v % was added. The mixture was mixed for 30 minutes at room temperature, and stirred slowly. Subsequently, the mixture was centrifuged at 5,000×g to remove the barium sulfate precipitate, and absorbed plasma was prepared by adding in the supernatant, and was mixed with 1 ml of N-ethylmaleimide, as inhibitor for Factor XIII. In other words, the composition prepared, contained at least Factor V and fibrinogen. Beside these, the absorbed plasma, without containing 1 mL of N-ethylmaleimide, was prepared and used, as a control. The absorbed plasma was prepared in the same manner as stated in the Example 2, except that a concentration of N-ethylmaleimide was varied. Separately, one volume of the absorbed plasma and one volume of 20 mM Hepes-Tris buffer solution (pH 7.0), in which 10 mM of calcium lactate was added, were mixed together to prepare the solution, for which a producing rate of the insoluble matter was visually detected both after storing 24 hours at 10° C., and right after freeze-thawed at −20° C. As clearly seen in the Table 2, it has been cleared that N-ethylmaleimide may inhibit insoluble precipitation even with adding 1 mM concentration, however, more preferably 1 mM to 10 mM.

Data set [5] is described as follows: Insoluble precipitation in three adsorbed plasmas with N-ethylmaleimide (Example 6). Also noted: key: +: Insoluble precipitation; −: No insoluble precipitation. The conditions noted are these: NEM (+). Type of data set: physicochemical, bovine. As for the experimental part:
To 100 ml of bovine plasma, barium sulfate in 20 w/v % was added. The mixture was mixed for 30 minutes at room temperature, and stirred slowly. Subsequently, the mixture was centrifuged at 5,000×g to remove the barium sulfate precipitate, and absorbed plasma was prepared by adding in the supernatant, and was mixed with 1 ml of N-ethylmaleimide, as inhibitor for Factor XIII. In other words, the composition prepared, contained at least Factor V and fibrinogen. Beside these, the absorbed plasma, without containing 1 mL of N-ethylmaleimide, was prepared and used, as a control. To study the effect of the present invention, one volume of three types absorbed plasma, prepared in the Example 2 and one volume of 20 mM Hepes-Trisbuffersolution were mixed together, and visually detected both after storing 24 hours at 10° C., and right after freeze-thawed at […]. As clearly seen in the Table 3, none of the adsorbed plasma mixed with N-ethylmaleimide observed the insoluble precipitation, neither in storing at 10° C. or after freeze-thawed treatment. […] Thus, it has become clear that the insoluble precipitation can be inhibited by adding N-ethylmaleimide.

Data set [6] relates to commercially available control plasma. Nature of the data set: Reagent performance: coagulation activity / clotting time of control plasma on blood coagulation analyzer Coagre (Example 8). The conditions noted are these: reagent with NEM added. The class given is biochemical. Here is the method: In order to confirm the performance of each reagent, prepared in the Example 8, the performance was evaluated using Blood coagulation analyzer, Coagre (manufactured by Shimazu, Co., Japan) by measuring clotting time with commercially available control plasma. The performance and stability of the reagent evaluated by using the reagents, prepared and preserved for several days at 10° C., to obtain plasma coagulation activity of control plasma. As clearly seen in the Table 5, clotting time was not varied even adding NEM.

[7] abbreviates: substance 1 mM in absorbed plasma + Hepes-Tris/calcium lactate.
[8] abbreviates: mixture of NEM with the inhibitor 1:1, procedures of Examples 5 to 8.

Read-outs that look alike come from different tables or passages of the source.

As for “Bovine serum albumin: Bovine serum albumin, comparison substance added at 1%”, the “Inhibiting for factor XIII” value in data set [1] (substance 1% in absorbed plasma + Hepes-Tris/calcium lactate) is “−”. Further, the Precipitation result in data set [2] (substance 1%) is listed as “+”.

`NCC(N)=O` [glycinamide]: the “stabilizing effect compared with NEM” value in data set [3] is recorded as “equal or slightly inferior to NEM”.

Take dithioprydine: the “stabilizing effect compared with NEM” value in data set [3] is given as “equal or slightly inferior to NEM”.

On to `CN(C)c1c([N+](=O)[O-])cc(N2C(=O)C=CC2=O)cc1[N+](=O)[O-]` [N-(4-dimethylamino-3,5-dinitrophenyl) maleimide], for which the “Inhibiting for factor XIII” value in data set [1] (setting [7]) is reported as “+”. In addition, in data set [2] (substance 1 mM), the Precipitation result is “−”.

For the molecule `CCN1C(=O)C=CC1=O` [N-ethylmaleimide], the “Inhibiting for factor XIII” value in data set [1] (setting [7]) is given as “+”. Moreover, the Precipitation result in data set [2] (substance 1 mM) is “−”. The Insoluble precipitation result in data set [4] (0.1 mM, Bovine plasma 1, 24 hours at 10° C.) was “±”; in data set [4] (0.1 mM, Bovine plasma 1, freeze-thawed at −20° C.), “+”; in data set [4] (0.1 mM, Bovine plasma 2, 24 hours at 10° C.), “±”; in data set [4] (0.1 mM, Bovine plasma 2, freeze-thawed at −20° C.), “+”; in data set [4] (1 mM, Bovine plasma 1, 24 hours at 10° C.) it was “−”; in data set [4] (1 mM, Bovine plasma 1, freeze-thawed at −20° C.) it was “−”. Moreover, the Insoluble precipitation result is recorded as “−” in data set [4] (1 mM, Bovine plasma 2, 24 hours at 10° C.); “−” in data set [4] (1 mM, Bovine plasma 2, freeze-thawed at −20° C.); “−” in data set [4] (2 mM, Bovine plasma 1, 24 hours at 10° C.); “−” in data set [4] (2 mM, Bovine plasma 1, freeze-thawed at −20° C.); “−” in data set [4] (2 mM, Bovine plasma 2, 24 hours at 10° C.); “−” in data set [4] (2 mM, Bovine plasma 2, freeze-thawed at −20° C.). The Insoluble precipitation entry in data set [4] (5 mM, Bovine plasma 1, 24 hours at 10° C.) is “−”; in data set [4] (5 mM, Bovine plasma 1, freeze-thawed at −20° C.), “−”; in data set [4] (5 mM, Bovine plasma 2, 24 hours at 10° C.), “−”; in data set [4] (5 mM, Bovine plasma 2, freeze-thawed at −20° C.), “−”; in data set [4] (10 mM, Bovine plasma 1, 24 hours at 10° C.) it was “−”; in data set [4] (10 mM, Bovine plasma 1, freeze-thawed at −20° C.), “−”. Moreover, the Insoluble precipitation result is recorded as “−” in data set [4] (10 mM, Bovine plasma 2, 24 hours at 10° C.); “−” in data set [4] (10 mM, Bovine plasma 2, freeze-thawed at −20° C.); “−” in data set [5] (Adsorbed plasma 1, Storage after freeze-thawing at −20° C.); “−” in data set [5] (Adsorbed plasma 1, Storage at 10° C.); “−” in data set [5] (Adsorbed plasma 2, Storage after freeze-thawing at −20° C.); “−” in data set [5] (Adsorbed plasma 2, Storage at 10° C.). Moreover, the Insoluble precipitation entry was “−” in data set [5] (Adsorbed plasma 3, Storage after freeze-thawing at −20° C.) and “−” in data set [5] (Adsorbed plasma 3, Storage at 10° C.). In addition, the clotting time entry in data set [6] is recorded as “not varied”.

Turning to monochloroamide, in data set [3] (setting [8]), the “stabilizing effect compared with NEM” value is “equal or slightly inferior to NEM”.

As for `[Cl-].[Na+]` [NaCl], in data set [1] (substance 10 mM in absorbed plasma + Hepes-Tris/calcium lactate), the “Inhibiting for factor XIII” value is “−”.

Regarding `C=CC(N)=O` [acrylamide], in data set [3] (setting [8]), the “stabilizing effect compared with NEM” value is on record as “equal or slightly inferior to NEM”.

For the molecule `OC[C@H]1O[C@@](CO)(O[C@H]2O[C@H](CO)[C@@H](O)[C@H](O)[C@H]2O)[C@@H](O)[C@@H]1O` [Sucrose], in data set [1] (substance 5% in absorbed plasma + Hepes-Tris/calcium lactate), the “Inhibiting for factor XIII” value was “−”. In data set [2] (substance 5%), the Precipitation entry was “+”.

With `O=C(O)CI` [Monoiodo acetic acid], in data set [1] (setting [7]), the “Inhibiting for factor XIII” value was “+”. Besides, in data set [2] (substance 1 mM), the Precipitation entry is “−”.
